From patent publication US9233111B2, “Pyrrolo pyrimidine derivatives” (NOVARTIS AG, priority 2011, dated 2016)

Tests used:
[1] = target: Btk (Homo sapiens (Human), UniProt Q06187); test: Inhibition of cellular Btk activity: Btk-dependent FcG receptor-induced IL-8 secretion in differentiated THP1 cells; type: cell-based; conditions: IgG-stimulated IL-8 secretion, 24 hours
Procedure: Alternatively, the present compounds might also be assessed for their capacity to inhibit Btk-dependent FcG receptor-induced IL-8 secretion in human cells. The human myeloid leukemia THP1 cell line (ATCC TIB202) was grown in RPMI 1640 medium supplemented with 10% FCS and 15 nM 1, 25-dihydroxy Vitamin D3 during 4 days before use to induced myeloid differentiation. A sufficient number of tissue-culture grade 384-well plates was coated with human IgG of unknown specificity by incubating overnight at 4° C. with 40 μl/well of a 50 μg/ml IgG solution in PBS. On the day of the experiment, plates were washed 5 times with 80 μl water on a Molecular Devices Aquamax DW4 plate washer. Solutions of the test compounds in 90% DMSO were added to each well on a Hamilton Microlab Star liquid handling station to 40 μl/well tissue culture medium and the total DMSO concentration was adjusted to 0.1%. Differentiated THP1 cells were then added in 40 μl/well to reach a final density of 5'000 cells/well in 80 μl culture medium. After 24 hours, IL-8 secretion was measured in the supernatant by the IL-8 HTRF assay following the protocol of the vendor (CisBio international). Inhibition data were calculated by comparison to control cultures without IgG stimulus enzyme (100% inhibition) and without inhibitors (0% inhibition). The concentration of inhibitor required for 50% inhibition (IC50) was calculated from the inhibition in response to inhibitor concentrations.

[2] = target: full-length human recombinant BTK (Homo sapiens (Human), UniProt Q06187); test: Inhibition of Btk enzymatic activity (biochemical enzyme assay, Caliper); conditions: 30° C., 60 minutes
In short: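 Reaction of 6.4 nM BTK (stock) with 4 μM FITC-peptide and 164 μM ATP (stock solution), 60 min at 30 °C in pH 7.5 HEPES with Mg2+/Mn2+. Phospho-peptide separated and quantified by microfluidic mobility shift after EDTA stop; IC50 from 8-point concentration–response.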

full-length human recombinant BTK, sequence (Q06187 whole entry): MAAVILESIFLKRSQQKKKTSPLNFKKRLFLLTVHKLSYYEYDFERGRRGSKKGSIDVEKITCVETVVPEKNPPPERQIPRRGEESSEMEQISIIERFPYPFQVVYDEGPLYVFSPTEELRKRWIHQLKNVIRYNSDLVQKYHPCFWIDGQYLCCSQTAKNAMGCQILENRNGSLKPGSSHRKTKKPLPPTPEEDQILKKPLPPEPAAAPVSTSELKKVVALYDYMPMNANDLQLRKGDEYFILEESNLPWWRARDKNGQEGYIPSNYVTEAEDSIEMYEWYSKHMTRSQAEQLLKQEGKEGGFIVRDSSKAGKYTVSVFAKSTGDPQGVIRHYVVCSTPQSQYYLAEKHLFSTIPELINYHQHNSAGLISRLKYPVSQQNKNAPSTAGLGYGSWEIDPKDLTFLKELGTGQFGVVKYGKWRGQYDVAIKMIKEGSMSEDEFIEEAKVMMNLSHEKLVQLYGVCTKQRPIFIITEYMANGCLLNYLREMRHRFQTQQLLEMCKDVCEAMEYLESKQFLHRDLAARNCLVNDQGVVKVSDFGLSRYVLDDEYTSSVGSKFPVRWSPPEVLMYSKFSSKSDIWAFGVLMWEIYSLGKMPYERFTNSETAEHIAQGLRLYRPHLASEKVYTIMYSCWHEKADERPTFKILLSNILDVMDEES
Btk, sequence (Q06187 whole entry): as above

In the case of `CN(C)C(=O)N1CC=C(c2cc3c(-c4ccc(F)c(NC(=O)N5CC(OC(C)(C)C)C5)c4)ncnc3[nH]2)CC1` [Example 62, 4-(4-{3-[(3-tert-Butoxy-azetidine-1-carbonyl)-amino]-4-fluoro-phenyl}-7H-pyrrolo[2,3-d]pyrimidin-6-yl)-3,6-dihydro-2H-pyridine-1-carboxylic acid dimethylamide], the IC50 [1] is reported as 71 nM and the IC50 [2] is reported as 2 nM.
